Data taken from patent US20250032454A1, “KDM1A INHIBITORS FOR THE TREATMENT OF DISEASE” (Imago Biosciences, Inc., priority 2021, published 2025).
pIC50: −log10 of the molar value. Where two headings read alike, the source gives them in different places.

Key:
LSD1 = LSD1 (Homo sapiens, UniProt O60341); test: LSD1 fluorescence coupling enzyme assay (HRP/Amplex Red, H3(1-21)K4me2 peptide), 10-dose IC50; type: biochemical; conditions: 10 μM histone H3(1-21)K4me2 peptide substrate, 3-fold serial dilution from 100 μM
How it was run: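 Fluorescence coupled assay: LSD1 demethylation of 10 μM H3(1-21)K4me2 peptide produces FAD-dependent H2O2, detected via HRP/Amplex Red as resorufin (Ex/Em 535/590 nm). IC50 from 10 doses, 3-fold serial dilution from 100 μM, in duplicate.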

MV4;11 cells = test: Cell Titer-Glo cell growth inhibition in MV4;11 cell line (Day 5 / Day 10); type: cell-based; conditions: Homo sapiens
Experimental: Cell growth inhibition against MV4;11 cells was confirmed for the synthetic compounds. The Cell Titer-Glo Luminescent Cell Viability Assay (Promega, USA) was used to determine the number of viable cells in culture based on quantitation of the ATP present, which signals the presence of metabolically active cells. This assay was run in a 96-well plate format arrayed in a 10-point dose curve, ranging from 0 to 50 µM with 4-fold dilutions for each compound. Cells are seeded on Day 0 at 3750 cells per well. At Day 5, a portion of each well is assayed for viability according to the Cell Titer-Glo protocol. Briefly, cells/plates were centrifuged at 1100×g for 5 minutes. 100 μL of media was removed from each well and replaced with 100 μL of CellTiter-Glo. The plates were shaken at room temperature for 10 minutes and measured on a luminescence plate reader. Another portion of each well from the Day 5 plate is used to seed a new 96 plate containing fresh compound and media set up in the equivalent 10-point dose curve array in order to continue the cell growth inhibition assay for another 5 days. A final timepoint is collected at Day 10 using the Cell Titer-Glo protocol. Luminescence was detected on an En Vision® Multilabel Plate Reader (Perkin Elmer, Waltham, Mass.) and IC50 determination was made using Graph Pad Prism software.

[1] = MV4-11, 120 h, Day 5, read-out: Cell Titer-Glo IC50 (5 d)
[2] = MV4-11, 240 h, Day 10, read-out: Cell Titer-Glo IC50 (10 d)

| SMILES | pIC50 (LSD1) | pIC50 (MV4;11 cells; [1]) | pIC50 (MV4;11 cells; [2]) | pIC50 (MV4;11 cells; 120 h, Day 5, read-out: Cell Titer-Glo IC50 (5 d)) | pIC50 (MV4;11 cells; 240 h, Day 10, read-out: Cell Titer-Glo IC50 (10 d)) |
| --- | --- | --- | --- | --- | --- |
| Cn1cc2cc(-n3nc(NC[C@@H]4CCNC4)cc3-c3ccc(C#N)c(F)c3)ccc2n1 [Example 21R, (R)-2-fluoro-4-(1-(2-methyl-2H-indazol-5-yl)-3-((pyrrolidin-3-ylmethyl)amino)-1H-pyrazol-5-yl)benzonitrile] | 6.00 to 6.30 | 6.00 to 6.30 | – | – | – |
| CS(=O)(=O)n1cc(-c2ccc(-n3nc(NC[C@H]4CCC[C@H](N)C4)cc3-c3ccc(C#N)c(F)c3)cc2)cn1 [Example 59, 4-(3-((((1S,3S)-3-aminocyclohexyl)methyl)amino)-1-(4-(1-(methylsulfonyl)-1H-pyrazol-4-yl)phenyl)-1H-pyrazol-5-yl)-2-fluorobenzonitrile] | > 6.30 | 5.00 to 6.00 | > 6.30 | – | – |
| N#Cc1ccc(-c2cc(NCC3CCCNCC3)nn2-c2ccc(C(=O)N3CCCC3)cc2)cc1F (centres unmarked) [Example 25, 4-(3-((azepan-4-ylmethyl)amino)-1-(4-(pyrrolidine-1-carbonyl)phenyl)-1H-pyrazol-5-yl)-2-fluorobenzonitrile] | 5.00 to 6.00 | 6.00 to 6.30 | > 6.30 | – | – |
| Cn1nnc2cc(-n3nc(NC[C@H]4CCC[C@H](N)C4)cc3-c3ccc(C#N)c(F)c3)ccc21 [Example 68, 4-(3-((((1S,3S)-3-aminocyclohexyl)methyl)amino)-1-(1-methyl-1H-benzo[d][1,2,3]triazol-5-yl)-1H-pyrazol-5-yl)-2-fluorobenzonitrile] | > 6.30 | > 6.30 | > 6.30 | – | – |
| N#Cc1ccc(-c2cc(NC[C@@H]3CCCNCC3)nn2-c2ccc(N3CCS(=O)(=O)CC3)cc2)cc1F (single isomer, unassigned) [Example 26a] | > 6.30 | > 6.30 | > 6.30 | – | – |
| Cn1cc2cc(-n3nc(NC[C@@H]4CCC[C@@H](N)C4)c(Cl)c3-c3ccc(C#N)c(F)c3)ccc2n1 [Example 36, 4-(3-((((1R,3R)-3-aminocyclohexyl)methyl)amino)-4-chloro-1-(2-methyl-2H-indazol-5-yl)-1H-pyrazol-5-yl)-2-fluorobenzonitrile] | 5.00 to 6.00 | 6.00 to 6.30 | > 6.30 | – | – |
| Cn1ncc2cc(-n3nc(NC[C@@H]4CN5CCC4CC5)cc3-c3ccc(C#N)c(F)c3)ccc21 (single isomer, unassigned) [Example 31a] | > 6.30 | – | – | 5.00 to 6.00 | > 6.30 |
| COc1ccc(-n2nc(NC[C@@H]3CCC[C@@H](CN)C3)cc2-c2ccc(C#N)c(F)c2)cc1 [Example 78, 4-(3-((((1R,3R)-3-(aminomethyl)cyclohexyl)methyl)amino)-1-(4-methoxyphenyl)-1H-pyrazol-5-yl)-2-fluorobenzonitrile] | > 6.30 | 5.00 to 6.00 | 5.00 to 6.00 | – | – |
| CO[C@H]1CCN(c2ccc(-n3nc(NC[C@H]4CCC[C@H](N)C4)cc3-c3ccc(C#N)c(F)c3)c(F)c2)C1 [Example 20, 4-(3-((((1S,3S)-3-aminocyclohexyl)methyl)amino)-1-(2-fluoro-4-((S)-3-methoxypyrrolidin-1-yl)phenyl)-1H-pyrazol-5-yl)-2-fluorobenzonitrile] | > 6.30 | – | > 6.30 | – | – |
| Cn1ncc2cc(-n3nc(NC[C@H]4CCC[C@H](N)C4)cc3-c3ccc(C#N)c(F)c3)ccc21 (single isomer, unassigned) [Example 7c] | > 6.30 | > 6.30 | > 6.30 | – | – |
| Cn1nc2ccc(-n3nc(NC[C@H]4CCC[C@H](N)C4)cc3-c3ccc(C#N)c(F)c3)cc2n1 [Example 69, 4-(3-((((15,3S)-3-aminocyclohexyl)methyl)amino)-1-(2-methyl-2H-benzo[d][1,2,3]triazol-5-yl)-1H-pyrazol-5-yl)-2-fluorobenzonitrile] | > 6.30 | – | > 6.30 | – | – |
| COc1ccc(-n2nc(NCC3CCNCC3)cc2-c2ccc(C#N)c(F)c2)cc1 [Example 2, 2-Fluoro-4-(1-(4-methoxyphenyl)-3-((piperidin-4-ylmethyl)amino)-1H-pyrazol-5-yl)benzonitrile] | > 6.30 | > 6.30 | – | – | – |
| Cn1cc2cc(-n3nc(NCC4CCCNC4)cc3-c3ccc(C#N)c(F)c3)ccc2n1 (centres unmarked) [Example 9, 2-Fluoro-4-(1-(2-methyl-2H-indazol-5-yl)-3-((piperidin-3-ylmethyl)amino)-1H-pyrazol-5-yl)benzonitrile] | > 6.30 | > 6.30 | – | – | – |
| Cn1ncc2cc(-n3nc(NC[C@@H]4CCC[C@@H](N)C4)cc3-c3ccc(C#N)c(F)c3)ccc21 (single isomer, unassigned) [Example 7d] | > 6.30 | > 6.30 | > 6.30 | – | – |
| Cn1cc2cc(-n3nc(NCC4CCNCC4)cc3-c3ccc(C#N)c(F)c3)ccc2n1 [Example 10, 2-Fluoro-4-(1-(2-methyl-2H-indazol-5-yl)-3-((piperidin-4-ylmethyl)amino)-1H-pyrazol-5-yl)benzonitrile] | > 6.30 | > 6.30 | – | – | – |
| Cn1cc2cc(-n3nc(NC[C@H]4CCCNC4)cc3-c3ccc(C#N)c(F)c3)ccc2n1 (single isomer, unassigned) [Example 9b] | > 6.30 | > 6.30 | – | – | – |
| COc1ccc(-n2nc(NC[C@@H]3CCC[C@H](N)C3)cc2-c2ccc(C#N)c(F)c2)cc1 (single isomer, unassigned) [Example 5b] | > 6.30 | > 6.30 | – | – | – |

Continued, in another order:

| pIC50 (LSD1) | pIC50 (MV4;11 cells; [1]) | pIC50 (MV4;11 cells; [2]) | SMILES | pIC50 (MV4;11 cells; 120 h, Day 5, read-out: Cell Titer-Glo IC50 (5 d)) | pIC50 (MV4;11 cells; 240 h, Day 10, read-out: Cell Titer-Glo IC50 (10 d)) |
| --- | --- | --- | --- | --- | --- |
| 6.00 to 6.30 | 5.00 to 6.00 | 5.00 to 6.00 | COc1ccc(-n2nc(NCC3CCCC(CN)C3)cc2-c2ccc(C#N)c(F)c2)cc1 (centres unmarked) [Example 28, 4-(3-(((-3-(aminomethyl)cyclohexyl)methyl)amino)-1-(4-methoxyphenyl)-1H-pyrazol-5-yl)-2-fluorobenzonitrile] | – | – |
| 6.00 to 6.30 | 5.00 to 6.00 | – | CN[C@H]1CCC[C@H](CNc2cc(-c3ccc(C#N)c(F)c3)n(-c3ccc(OC)cc3)n2)C1 (single isomer, unassigned) [Example 33a] | – | – |
| 5.00 to 6.00 | – | < 5.00 | COc1ccc(-n2nc(NCc3cccc(N)c3)cc2-c2ccc(C#N)c(F)c2)cc1 [Example 40, 4-(3-((3-aminobenzyl)amino)-1-(4-methoxyphenyl)-1H-pyrazol-5-yl)-2-fluorobenzonitrile] | – | – |
| > 6.30 | > 6.30 | > 6.30 | N#Cc1ccc(-c2cc(NC[C@@H]3CCCNCC3)nn2-c2ccc(N3CCCC3)cc2)cc1F (single isomer, unassigned) [Example 24a] | – | – |
| 6.00 to 6.30 | > 6.30 | > 6.30 | CN1CCN(c2ccc(-n3nc(NC[C@H]4CCC[C@H](N)C4)cc3-c3ccc(C#N)c(F)c3)cc2)CC1 [Example 44, 4-(3-((((1S,3S)-3-aminocyclohexyl)methyl)amino)-1-(4-(4-methylpiperazin-1-yl)phenyl)-1H-pyrazol-5-yl)-2-fluorobenzonitrile] | – | – |
| > 6.30 | 6.00 to 6.30 | – | COc1ccc(-n2nc(NC[C@H]3CCC[C@@H](N)C3)cc2-c2ccc(C#N)c(F)c2)cc1 (single isomer, unassigned) [Example 5a] | – | – |
| > 6.30 | > 6.30 | > 6.30 | N#Cc1ccc(-c2cc(NC[C@@H]3CCCNCC3)nn2-c2ccc(C(=O)N3CCCC3)cc2)cc1F (single isomer, unassigned) [Example 25a] | – | – |
| > 6.30 | > 6.30 | > 6.30 | Cn1ccc2cc(-n3nc(NCC4CCC[C@H](N)C4)cc3-c3ccc(C#N)c(F)c3)ccc21 (stereo partly drawn) [Example 66, 4-(3-((((1,3S)-3-aminocyclohexyl)methyl)amino)-1-(1-methyl-1H-indol-5-yl)-1H-pyrazol-5-yl)-2-fluorobenzonitrile] | – | – |
| 5.00 to 6.00 | > 6.30 | – | Cn1cc2cc(-n3nc(NC[C@@H]4CCCNC4)cc3-c3ccc(C#N)c(F)c3)ccc2n1 (single isomer, unassigned) [Example 9a] | – | – |
| 5.00 to 6.00 | 5.00 to 6.00 | > 6.30 | CS(=O)(=O)n1cc(-c2cccc(-n3nc(NC[C@H]4CCC[C@H](N)C4)cc3-c3ccc(C#N)c(F)c3)c2)cn1 [Example 60, 4-(3-((((1S,3S)-3-aminocyclohexyl)methyl)amino)-1-(3-(1-(methylsulfonyl)-1H-pyrazol-4-yl)phenyl)-1H-pyrazol-5-yl)-2-fluorobenzonitrile] | – | – |
| > 6.30 | > 6.30 | > 6.30 | Cn1nc2ccc(-n3nc(NC[C@@H]4CCC[C@@H](N)C4)cc3-c3ccc(C#N)c(F)c3)cc2c1Cl [Example 14RR, 4-(3-((((1R,3R)-3-aminocyclohexyl)methyl)amino)-1-(3-chloro-2-methyl-2H-indazol-5-yl)-1H-pyrazol-5-yl)-2-fluorobenzonitrile] | – | – |
| > 6.30 | 6.00 to 6.30 | – | Cn1ncc2cc(-n3nc(NC[C@@H]4CCC[C@H](N)C4)cc3-c3ccc(C#N)c(F)c3)ccc21 (single isomer, unassigned) [Example 7b] | – | – |
